From US20240002429A1, “PRODRUG OF 5a-HYDROXY-6ß-[2-(1H-IMIDAZOL-4-YL)ETHYLAMINO]CHOLESTAN-3ß-OL AND PHARMACEUTICAL COMPOSITIONS COMPRISING SAME FOR USE IN THE TREATMENT OF CANCER” (priority 2020, published 2024)

Experiments:
[1] = target: T1, cholesterol epoxide hydrolase (ChEH) (Homo sapiens, UniProt Q15125); assay: Activity of cholesterol epoxide hydrolase (ChEH) in MCF-7 cells, [14C]5,6α-EC metabolization by TLC; type: cell-based; settings: MCF-7, 1 μM, 24 h, [14C]5,6α-EC 0.6 μM
T1 construct: endogenous in cells; host or cells: MCF-7
T1 sequence (Q15125 whole entry): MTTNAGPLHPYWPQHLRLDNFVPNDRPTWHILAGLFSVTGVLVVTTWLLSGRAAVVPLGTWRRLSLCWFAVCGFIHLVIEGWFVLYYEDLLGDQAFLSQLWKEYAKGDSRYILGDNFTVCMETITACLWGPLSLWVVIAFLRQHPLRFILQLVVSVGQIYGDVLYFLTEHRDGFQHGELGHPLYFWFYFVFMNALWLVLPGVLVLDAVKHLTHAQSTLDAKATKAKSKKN
Source text: The compounds 5,6α-epoxycholesterol (5,6α-EC) and 5,6β-epoxycholesterol (5,6β-EC) are oxysterols involved in the anticancer pharmacology of tamoxifen, a widely used antitumor drug. They are both metabolized in cholestan-3β,5α,6β-triol (CT) by the enzyme cholesterol-5,6-epoxide hydrolase (ChEH), and CT is metabolized by the enzyme HSD11B2 (11β-hydroxysteroid dehydrogenase 2) to 6-oxo-cholestan-3β,5α-diol (OCDO), an oncosterone tumor promoter.
MCF-7 cells are in a cell culture medium identical to example 20 and are seeded in 6-well plates at 150000 cells per well with 3 wells per treatment condition. 24 h after seeding, the MCF-7 cells are treated with [^14C]5,6α-EC (stock solution 1000×: 0.6 mM; 20 μCi/μmol; final concentration 0.6 μM) alone or in combination with tamoxifen (tam). Tamoxifen is used as positive control of the study compounds. The treatment with the compound according to the invention is carried out at a concentration of 1 μM.
After 24 hours of treatment, the media are collected and lipid extracts are prepared from the cell pellets by extraction with 100 μL of chloroform, 400 μL of methanol and 300 μL of water. The lipid extracts are analyzed by thin-layer chromatography (TLC) using ethyl acetate (EtOAc) as eluent. The analysis is carried out using a plate reader and then by autoradiography.

[2] = test system: BT-474 human mammary tumor cells; assay: Cytotoxicity on BT-474 cells, LDH; type: cell-based
Protocol: (§1) For the second method, the percentage viability is determined using assay of the activity of the enzyme LDH (lactate dehydrogenase) in the cellular supernatants using the kit non radioactive cytotoxicity assay kit (Promega). LDH is an enzyme released in the supernatant of dead cells. The higher the LDH activity in the supernatant, the greater is the cell death. In this enzyme test, the LDH released converts a violet tetrazolium salt to formazan, of red color, absorbing at 490 nm. The intensity of the red color is proportional to the number of dead cells. After 48 h of treatment, the supernatants are transferred to a new 96-well plate and are incubated for 30 minutes in the presence of the substrate mix at room temperature. The reaction is stopped using the stop buffer and the absorbance is determined at 490 nm. The percentage cell death is determined here using a control 100% of maximum activity of LDH (carried out with untreated cells incubated in the presence of the lysis solution for 45 minutes at 37° C. just before adding the substrate mix), and the cellular viability in each well is then deduced from this percentage. IC50 is then determined as explained in the preceding paragraph.
(§2) The cellular viability tests were also carried out on BT-474 human mammary tumor cells (characterized as being positive triples HER2+, ER+, PR+). The BT-474 cells are in a cell culture medium identical to the preceding example and are seeded in 24-well plates at 70 000 cells per well, for determination of cellular viability using trypan blue, or in 96-well plates at 13 000 cells per well for determination of cellular viability using the MTT or LDH assay. After 96 hours (h) of culture in normal conditions, i.e. in an incubator at a temperature of 37° C. at 5% CO2, the BT-474 cells are treated for 48 h with DX101, DX107, and DX113 at 100 nM, 1 μM, 2.5 μM and 10 μM. A control is also carried out using the protocol described above but without treatment with the molecules DX101, DX107, DX113, DX117, DX119, DX121 or DX131.
(§3) After trypsin digestion for 10 minutes at 37° C., cell survival was quantified, also by a trypan blue assay with automatic counting with the Biorad TC20 equipment (TC20™ Automated Cell Counter). The trypan blue assay is based on the cell membrane integrity, which is broken in the dead cells. Trypan blue stains the dead cells blue. The Biorad TC20 cell counter counts the proportion of blue cells and non-blue cells, relative to the cell percentages. The percentage viability is then determined in each well relative to the untreated cells and the IC50 is determined as explained in the preceding example. The percentage viability of the BT-474 cells was determined using the MTT and LDH assay, carried out as described in the preceding example.

[3] = test system: BT-474 human mammary tumor cells; assay: Cytotoxicity on BT-474 cells, MTT; type: cell-based
Protocol: (§4) Cellular viability is measured by three different methods. For the first method, MTT labeling is carried out at 48 hours. This test is based on the use of the tetrazolium salt MTT (3-(4,5-dimethylthiazol-2-yl)-2,5-diphenyltetrazolium bromide). The tetrazolium is reduced by mitochondrial succinate dehydrogenase of active living cells, to formazan, a precipitate of a violet color. The quantity of precipitate formed is proportional to the quantity of living cells but also to the metabolic activity of each cell. […] After 48 hours, the medium is aspirated, and the cells are incubated with MTT (0.5 mg/ml in culture medium) for about 3 hours. The MTT solution is aspirated and the violet crystals are dissolved in dimethylsulfoxide (DMSO). The OD (optical density) is measured at 550 nm. The percentage viability is then determined in each well relative to the CTL and the IC50 (concentration for which there are still 50% of living cells) is determined for each molecule with Prism software using the nonlinear regression straight line (log(inhibitor) vs. Response).
as §2, §3

4T1 cells [4] = assay: Cytotoxicity on 4T1 cells, MTT; type: cell-based, murine; settings: Mus musculus
Protocol: (§5) The cellular viability tests were carried out on murine mammary tumor 4T1 cells characterized as negative triples (HER2−, ER−, PR−).
(§6) For this experiment, a cell culture medium was prepared. The culture medium consists of Dulbecco's Modified Eagle Medium (DMEM, marketed by Westburg under the reference LO BE12-604F), comprising 4.5 g/L glucose with L-glutamine, to which 10% of fetal calf serum (FCS) and 50 U/mL of penicillin/streptomycin are added. The 4T1 cells are introduced into this culture medium.
(§7) 96-well plates were seeded with 2000 4T1 cells per well. After 72 hours (h) of culture in normal conditions, i.e. in an incubator at a temperature of 37° C. at 5% CO2, the 4T1 cells are treated for 48 h with DX101, DX107, DX113, DX117, DX119, DX121 or DX131 at 100 nM, 1 μM, 2.5 μM and 10 μM. A control condition (CTL) is also carried out in parallel using the protocol described above but without treatment with the molecules DX101, DX107, DX113, DX117, DX119, DX121, DX131 or DX133.
as §4

4T1 cells [5] = assay: Cytotoxicity on 4T1 cells, CellTox Green Cytotoxicity Assay; type: cell-based, murine; settings: Mus musculus
Protocol: as §5, §6, §7
For the third method, the percentage viability is determined using the kit CellTox Green Cytotoxicity Assay (Promega). This assay measures cell death via a change in membrane integrity. […] As a result, the higher the fluorescence in the wells, the greater is the cell death. After 48 h of treatment, the cells are incubated for a minimum of 15 minutes in the presence of the Celltox green reagent at room temperature and the fluorescence is read at […]. The percentage cell death is determined using the control 100% of cell death (carried out for untreated cells incubated in the presence of the lysis solution for 30 minutes at 37° C. before adding the Celltox green reagent), and the cellular viability in each well is then deduced from this percentage. IC50 is then determined as explained above.

4T1 cells [6] = assay: Cytotoxicity on 4T1 cells, LDH; type: cell-based, murine; settings: Mus musculus
Protocol: as §5, §6, §7, §1

[7] = 4T1, 48 h, read-out: Mean LogIC50 (±SEM) (converted)

CC/C(=C(\c1ccccc1)c1ccc(OCCN(C)C)cc1)c1ccccc1 [tamoxifen]
inhibition of ChEH activity [1]: total inhibition

CCN(CC)C(=O)O[C@H]1CC[C@]2(C)C3CC[C@@]4(C)C(CC[C@@H]4C(C)CCCC(C)C)C3C[C@@H](NCCc3c[nH]cn3)[C@@]2(O)C1 (stereo partly drawn) [DX131, 5α-hydroxy-6β-[2-(1H-imidazol-4-yl)ethylamino]cholestan-3β-yl-diethyl carbamate]
Mean LogIC50 (±SEM) ([2]; BT-474, LDH, 48 h, log of IC50 in μM): 1.45 ± 0.08
IC50 ([2]; Homo sapiens, BT-474, 48 h): 28.2 µM
Mean LogIC50 (±SEM) ([3]; BT-474, MTT, 48 h, log of IC50 in μM): 1.08 ± 0.08
IC50 ([3]; Homo sapiens, BT-474, 48 h): 12 µM
IC50 (4T1 cells [4]; 4T1, 48 h): 25.7 µM
IC50 (4T1 cells [4]; [7]): 25.7 µM
IC50 (4T1 cells [5]; 4T1, 48 h): 1.81 µM
IC50 (4T1 cells [5]; [7]): 1.7 µM
IC50 (4T1 cells [6]; 4T1, 48 h): 6.76 µM
IC50 (4T1 cells [6]; [7]): 6.76 µM

CCC(=O)NC(Cc1ccc(O)cc1)C(=O)O[C@H]1CC[C@]2(C)C3CC[C@@]4(C)C(CC[C@@H]4C(C)CCCC(C)C)C3C[C@@H](NCCc3c[nH]cn3)[C@@]2(O)C1 (stereo partly drawn) [DX133, 5α-hydroxy-6β-[2-(1H-imidazol-4-yl)ethylamino]cholestan-3β-yl propionyltyrosine]
IC50 (4T1 cells [4]; 4T1, MTT, 48 h, log of IC50 in μM, read-out: Mean LogIC50 (±SEM) (converted)): 12.3 µM
IC50 (4T1 cells [4]; 4T1, MTT, 48 h, read-out: IC50): 12.2 µM
IC50 (4T1 cells [5]; 4T1, Green Cytotoxicity Assay, 48 h, log of IC50 in μM, read-out: Mean LogIC50 (±SEM) (converted)): 3.55 µM
IC50 (4T1 cells [5]; 4T1, Green Cytotoxicity Assay, 48 h, read-out: IC50): 3.56 µM
IC50 (4T1 cells [6]; 4T1, LDH, 48 h, log of IC50 in μM, read-out: Mean LogIC50 (±SEM) (converted)): 4.17 µM
IC50 (4T1 cells [6]; 4T1, LDH, 48 h, read-out: IC50): 4.17 µM
